Literature values as cited in patent EP0513922B1, “Coating for foods and agricultural products to prevent the growth of moulds” (GIST-BROCADES N.V., priority 1991, dated 1992).

How the values were obtained:
[1] = in aqueous systems, depending of the presence of other substances
[2] = tested on: fungus growth; conditions: to be effective against fungus growth

## C[C@@H]1C/C=C/C=C/C=C/C=C/[C@H](O[C@@H]2O[C@H](C)[C@@H](O)[C@H](N)[C@@H]2O)C[C@@H]2O[C@](O)(C[C@@H](O)C[C@H]3O[C@@H]3/C=C/C(=O)O1)C[C@H](O)[C@H]2C(=O)O [natamycin]
[1]
  solubility of natamycin: 30 - 50 ppm
[2]
  minimal inhibitory concentration: less than 10 ppm
